# Source: a melting point compilation (Tetko et al.; mined from patent text by program, amines drawn as free bases though some values may be those of a salt)
row,Compound,melting point [°C]
1,O=c1[nH]nc(-c2ccc(-n3ccnc3)cc2)c2ncccc12,376 to 378
2,COc1cc(CCCC2OC(=O)NC2=O)ccc1OCc1coc(/C=C/c2ccccc2)n1 (stereo not drawn),178 to 179
3,COc1ccc(C2=NN(C3CCCCCC3)C(=O)[C@H]3CC=CC[C@@H]23)c2c1OC(C)(C)C2 (relative stereo),114 to 115
4,CC(=O)OCC1OC(Oc2cc(C)cc(O)c2C(C)=O)C(OC(C)=O)C(OC(C)=O)C1OC(C)=O (stereo not drawn),140 to 142
5,CCOC(=O)/C=C/c1cnc2c(c1)C(=O)N(C)c1ccc(Cl)nc1N2CC,192 to 193
6,NC(=O)C1c2ccccc2-c2ccccc21,250
7,CC(=O)N1CCc2c(c3ccc(-n4ccc(-c5ccc(C(F)(F)F)nc5)cc4=O)nc3n2C)C1,238 to 242
8,CCCCOCCOc1ccc(-c2ccc(N3CCC(=O)C3)c(C=C(C)C(=O)OCC)c2)cc1,98.5 to 99
9,"CC(=O)NCC1CC(c2ccc(-n3ccc(C=O)c3)c(F)c2)=NO1 (single isomer, unassigned; (-))",155 to 156
10,Cc1ccc2nc(-c3cccnc3N)n(-c3ccc(CNC(=O)c4ccccc4)cc3)c2n1,203 to 205
11,Cc1cc(SC2=C(O)CC(CCc3ccoc3)(C(C)C)OC2=O)c(C(C)(C)C)cc1CO (stereo not drawn),62 to 70
12,CSc1nc(-c2ccncc2)nc(=O)n1C,216 to 218
13,Cc1oc2c(C)c(C)c(NC(=O)CC(C)(C)C)c(C)c2c1-c1ccc(C(C)C)cc1,253 to 254
14,NC(N)=Nc1nc(-c2cccc(CO)n2)cs1,229
15,O=c1[nH]c2ccccc2c(=O)cc1N(CCO)CCO,204 to 205
16,O=C(NC1CCN(Cc2ccccc2)CC1)c1c[nH]c2ccc(F)cc12,215 to 217
17,CN1CCN(c2cnc3cc(Cl)ccc3n2)CC1,151 to 152
18,CN(C(=O)c1ccc2cnccc2n1)C1CCCCC1,62 to 63
19,CCCCOc1ccccc1C1=NC(=O)C2=NC=NC2=N1,247 to 248
20,CCn1nc(-c2nc(C(=O)O)c(NCc3ccc(OC)cc3)nc2-c2ccccc2)ccc1=O,> 250
21,O=C(OC(c1ccccc1)c1ccccc1)[C@H](O)CCc1ccccc1,82 to 84
22,COc1cc(OC)nc(Sc2cccc(C)c2C(=O)O)n1,131 to 132
23,CN1CCN(c2cc(Cl)cc3c2c(=O)n(Cc2cccc([N+](=O)[O-])c2)c(=O)n3Cc2ccccc2)CC1,200 to 205
24,COc1cc(Nc2nc3cccc(-c4cccc(Cl)c4)c3o2)cc(OC)c1OC,199 to 201

row,Compound,melting point [°C]
1,COc1cc(C(C)=O)ccc1OCCCN1CCC(c2n[nH]c3cc(F)ccc23)CC1,202 to 204
2,CN(C)C[C@@H]1C(=O)N[C@H]1SC(c1ccccc1)(c1ccccc1)c1ccccc1 (relative stereo),129 to 131
3,N#CCCNC(=O)c1cccc(-c2ccc3c(c2)C(Oc2ccc(Cl)cc2Cl)CCC3)c1 (stereo not drawn),150 to 151
4,CCOC(=O)c1c(S(=O)Cc2nccn2C)nc2cc(OC)c(OC)cc2c1-c1ccc(OC)c(OC)c1 (stereo not drawn),151 to 152
5,NS(=O)(=O)c1cc2c(s1)S(=O)(=O)CCN2,250 to 252
6,Cc1c(Cc2ccc([N+](=O)[O-])cc2)c(=O)oc2cc(OCc3nnn[nH]3)cc(OCc3nnn[nH]3)c12,240 to 244
7,CCc1c(Sc2ccccc2)[nH]c(=O)[nH]c1=O,218 to 219
8,O=C(c1ccn2c1CSC2c1cccnc1)c1c[nH]c2cc(Br)ccc12 (stereo not drawn),265
9,COc1ccc2oc3ccc(Br)cc3c2c1C(=O)Nc1ccncc1,270 to 273
10,COC(=O)CCc1cc2cc(Cl)ccc2n1S(=O)(=O)c1ccc(F)cc1,129 to 131
11,C=C1SC(=O)N(c2ccc3cc(-c4ccc(OC)c(C56CC7CC(CC(C7)C5)C6)c4)ccc3c2)C1=O,286 to 287
12,CCc1cccc(C)c1CNc1cc(CO)cn2nc(C)nc12,180
13,COc1ccc(CNc2nn(CC(=O)OC(C)(C)C)c(=O)c3ccc(C#N)cc23)cc1Cl,174 to 175
14,CCCc1nc2c(N)nc(C)c(C)c2n1CC(C)(C)NC(=O)c1ccccc1,208 to 210
15,O=[N+]([O-])c1ccccc1-c1nc2ccccc2n1CC(O)CO (stereo not drawn),182 to 183
16,N#Cc1cnc2sc(-c3ccccc3)cc2c1NCCc1c[nH]cn1,> 245
17,COC(=O)CCc1cc(NC(=O)c2ccc(C(=O)Nc3cc(CCC(=O)OC)cc(C(C)(C)C)c3O)s2)c(O)c(C(C)(C)C)c1,172 to 173
18,COc1ccc(C2=CCN(CCC(O)c3ccc(C#N)cc3)CC2)cc1 (stereo not drawn),144 to 145
19,CCOC(=O)CNS(=O)(=O)c1ccc(N2CCC(NC[C@H](O)c3ccc(O)c(NS(C)(=O)=O)c3)CC2)cc1,105 to 107
20,CC1c2ccccc2-c2ccccc2N1S(=O)(=O)c1ccc(O)c(CO)c1 (stereo not drawn),182 to 184
21,O=C(O)CCC12CCC(=O)N1C(=O)CC2,179 to 181
22,COC(=O)NCCc1ccc(OCC(O)CNC(C)C)nc1 (stereo not drawn),97 to 99
23,CC(=O)Nc1cccc2c1CCN(C(C)=O)C2,154 to 156
24,COc1cc(Nc2c(C#N)cnc3cc(-c4ccc(CCN5CCOCC5)cc4)c(OC)cc23)c(Cl)cc1Cl,215 to 217
